Data taken from patent US10017481B2, “Conformationally constrained, fully synthetic macrocyclic compounds” (POLYPHOR AG, priority 2012, dated 2018).

What was measured:
Format in all cases: in vitro ADME
[1] = Metabolic stability assay, CD-1 mouse microsomes; conditions: CD-1 mouse microsomes, 10 μM, 37° C.; for half-life at 10 μM: both sexes, 1 mg/ml protein, read-out: Metabolic Stability T ½ [min] mouse/(rat)
Procedure: (§1) 5. Plasma and Metabolic Stability Assays
(§2) Example compounds were dissolved in DMSO/H2O 90:10 to a final concentration of 10 mM for plasma stability determination and metabolic stability determination.
(§3) The assays were conducted according to literature precedents (F. P. Guengerich, Analysis and Characterization of Enzymes; in: Principles and Methods of Toxicology, A. W. Hayes (Ed.) Raven Press: New York, 1989, 777-813; R. Singh et al., In vitro metabolism of a potent HIV-protease inhibitor (141W94) using rat, monkey and human liver S9, Rapid Commun. Mass Spectrom. 1996, 10, 1019-1026).
(§4) Metabolic Stability Assay
(§5) Microsomes from a human 50 donor mixed gender pool and 1:1 mixtures of microsomes from CD-1 mouse single-gender pools are purchased from Celsis (Belgium). The enzymatic reaction is performed in a buffer containing an NADPH regeneration system and microsomes with the following end concentrations: 100 mM potassium phosphate buffer (all from Sigma), 1 mg/mL glucose-6-phosphate, 1 mg/mL β-nicotinamide adenine dinucleotide phosphate (NADP), 0.65 mg/mL magnesium chloride, 0.8 units/mL of glucose-6-phosphate dehydrogenase (prediluted with 5 mM citrate buffer), 10 μM compound and 1 mg/ml microsomal protein. Compounds are incubated at 37° C. in duplicates and samples are taken after 0, 5, 10, 20 and 60 minutes. After acetonitrile precipitation (3 volumes), shaking (2 minutes, 600 rpm) followed by centrifugation (10 minutes, 3200 g), the supernatant is dried reconstituted in the suitable solvent (cf. Table 33) and analyzed by HPLC/MS/MS. Metabolic turnover is expressed in % of the initial 0 minutes value and half life T½ (min) is calculated. Verapamil for human and propranolol for mouse are used as reference and are assayed with every experimental set.

[2] = Plasma stability assay, CD-1 mouse plasma; conditions: for Plasma Stability 240 min mouse/(rat) [% remain.]: CD-1 mouse plasma, 10 μM, 37° C.; for half-life at 10 μM: both sexes, CD-1, mouse, plasma
Procedure: (§6) 5. Plasma and Metabolic Stability Assays Example compounds were dissolved in DMSO/H2O 90:10 to a final concentration of 10 mM for plasma stability determination and metabolic stability determination. The assays were conducted according to literature precedents (F. P. Guengerich, Analysis and Characterization of Enzymes; in: Principles and Methods of Toxicology, A. W. Hayes (Ed.) Raven Press: New York, 1989, 777-813; R. Singh et al., In vitro metabolism of a potent HIV-protease inhibitor (141W94) using rat, monkey and human liver S9, Rapid Commun. Mass Spectrom. 1996, 10, 1019-1026). Plasma Stability Assay Human plasma (Blutspendedienst SRK, Basel) and CD-1 mouse plasma (mixed gender pool >50 animals, Innovative Research, Calif., USA) are both sodium citrate stabilized. The assay is performed in triplicates at 10 μM compound concentration and 37° C. Samples are taken at 0, 15, 30, 60, 120 and 240 minutes and stopped by precipitation with 3 volumes of acetonitrile/formic acid 98:2 and shaking (2 minutes, 600 rpm) followed by filtration (−20 mm Hg). The filtrate is collected. The filtrate (100 μL) is evaporated and reconstituted in the suitable solvent (cf. Table 33) to be analyzed by HPLC/MS/MS. The resulting peak area counts are expressed in percent of the 0 value and used to determine the endpoint stability in % and the half life T in minutes. In order to monitor assay integrity the degradation of propantheline is assayed with every experimental set.

[3] = Plasma stability assay, human plasma; conditions: for Plasma Stability 240 min hum [% remain.]: human plasma, 10 μM, 37° C.; for half-life at 10 μM: human, plasma
Procedure: as §6

[4] = Metabolic stability assay, human liver microsomes; conditions: human microsomes, 10 μM, 37° C.; for half-life at 10 μM: both sexes, liver microsomes, 1 mg/ml protein, read-out: Metabolic Stability T ½ [min] hum
Procedure: as §1, §2, §3, §4, §5

SMILES	Metabolic Stability 60 min mouse/(rat) [% remain.] [1] [% remain.]	half-life at 10 μM [1] [min]	Plasma Stability 240 min mouse/(rat) [% remain.] [2] [% remain.]	half-life at 10 μM [2] [min]	Plasma Stability 240 min hum [% remain.] [3] [% remain.]	half-life at 10 μM [3] [min]	half-life at 10 μM [4] [min]	Metabolic Stability 60 min hum [% remain.] [4] [% remain.]
COc1ccc2c(c1)-c1cccc(c1)C(=O)N(C)[C@H](C(=O)O)CCC(=O)N[C@H](C)CO2 [Ex. 42, (10R,15S)-4-methoxy-10,16-dimethyl-12,17-dioxo-8-oxa-11,16-diazatricyclo[16.3.1.0^2,7]docosa-1(22),2,4,6,18,20-hexaene-15-carboxylic acid]	100	> 60	100	> 240	91	> 240	> 60	100
COc1ccc2c(c1)-c1cccc(c1)C(=O)N(C)[C@H](C(N)=O)CCC(=O)N[C@H](C)CO2 [Ex. 43, (10R,15S)-4-methoxy-10,16-dimethyl-12,17-dioxo-8-oxa-11,16-diazatricyclo[16.3.1.0^2,7]docosa-1(22),2,4,6,18,20-hexaene-15-carboxamide]	83	> 60	63	> 240	97	> 240	> 60	100
COc1ccc2c(c1)-c1cccc(c1)C(=O)N(C)[C@H](C(=O)NCC(F)(F)F)CCC(=O)N[C@H](C)CO2 [Ex. 53, (10R,15S)-4-methoxy-10,16-dimethyl-12,17-dioxo-N-(2,2,2-trifluoroethyl)-8-oxa-11,16-diazatricyclo[16.3.1.0^2,7]docosa-1(22),2,4,6,18,20-hexaene-15-carboxamide]	92	> 60	86	> 240			> 60	100
COc1ccc2c(c1)-c1cccc(c1)C(=O)N(C)[C@H](C(=O)NCCO)CCC(=O)N[C@H](C)CO2 [Ex. 55, (10R,15S)-N-(2-hydroxyethyl)-4-methoxy-10,16-dimethyl-12,17-dioxo-8-oxa-11,16-diazatricyclo[16.3.1.0^2,7]docosa-1(22),2,4,6,18,20-hexaene-15-carboxamide]	98	> 60	80	> 240			> 60	97
C[C@H]1COc2cccc(c2)-c2cccc(c2)C(=O)N(C)[C@H](C(=O)NCCc2ccccc2)CCC(=O)N1 [Ex. 73, (9S,14S)-9,15-dimethyl-11,16-dioxo-N-phenethyl-7-oxa-10,15-diazatricyclo [15.3.1.1^2,6]docosa-1(21),2(22),3,5,17,19-hexaene-14-carboxamide]	0	1			89	> 240	2	0
C[C@H]1COc2cccc(c2)-c2cccc(c2)C(=O)N(C)[C@H](C(=O)N2CCC2)CCC(=O)N1 [Ex. 86, (9S,14S)-14-(1-azetanylcarbonyl)-9,15-dimethyl-7-oxa-10,15-diazatricyclo [15.3.1.1^2,6]docosa-1(21),2(22),3,5,17,19-hexaene-11,16-dione]	71	> 60	60	> 240				
C[C@H]1COc2cccc(c2)-c2cccc(c2)C(=O)N(C)[C@H](C(=O)NCc2cn(C)cn2)CCC(=O)N1 [Ex. 88, (9S,14S)-9,15-dimethyl-N-[(1-methyl-1H-imidazol-4-yl)methyl]-11,16-dioxo-7-oxa-10,15-diazatricyclo[15.3.1.1^2,6]docosa-1(21),2(22),3,5,17,19-hexaene-14-carboxamide]	62	> 60	81	> 240			56	49

Continued, values first:

Metabolic Stability 60 min mouse/(rat) [% remain.] [1] [% remain.]	half-life at 10 μM [1] [min]	Plasma Stability 240 min mouse/(rat) [% remain.] [2] [% remain.]	half-life at 10 μM [2] [min]	Plasma Stability 240 min hum [% remain.] [3] [% remain.]	half-life at 10 μM [3] [min]	half-life at 10 μM [4] [min]	Metabolic Stability 60 min hum [% remain.] [4] [% remain.]	SMILES
77	> 60	83	> 240	100	> 240	> 60	68	CNC(=O)[C@@H]1CCC(=O)N[C@H](C)COc2ccc(OC)cc2-c2cccc(c2)C(=O)N1C [Ex. 44, (10R,15S)-4-methoxy-N,10,16-trimethyl-12,17-dioxo-8-oxa-11,16-diazatricyclo[16.3.1.0^2,7]docosa-1(22),2,4,6,18,20-hexaene-15-carboxamide]
73	> 60	46	190	76	> 240	> 60	66	COc1ccc2c(c1)-c1cccc(c1)C(=O)N(C)[C@H](C(=O)Nc1ccccc1)CCC(=O)N[C@H](C)CO2 [Ex. 45, (10R,15S)-4-methoxy-10,16-dimethyl-12,17-dioxo-N-phenyl-8-oxa-11,16-diazatricyclo[16.3.1.0^2,7]docosa-1(22),2,4,6,18,20-hexaene-15-carboxamide]
70	> 60			95	> 240	> 60	87	COc1ccc2c(c1)-c1cccc(c1)C(=O)N(C)[C@H](C(=O)N[C@@H](C)c1ccccc1)CCC(=O)N[C@H](C)CO2 [Ex. 58, (10R,15S)-4-methoxy-10,16-dimethyl-12,17-dioxo-N-[(1S)-1-phenylethyl]-8-oxa-11,16-diazatricyclo[16.3.1.0^2,7]docosa-1(22),2,4,6,18,20-hexaene-15-carboxamide]
19	25			97	> 240	8	0	COc1ccc2c(c1)-c1cccc(c1)C(=O)N(C)[C@H](C(=O)NCc1cccc3ccccc13)CCC(=O)N[C@H](C)CO2 [Ex. 60, (10R,15S)-4-methoxy-10,16-dimethyl-N-(1-naphthylmethyl)-12,17-dioxo-8-oxa-11,16-diazatricyclo[16.3.1.0^2,7]docosa-1(22),2,4,6,18,20-hexaene-15-carboxamide]
9	15			88	> 240	16	4	C[C@H](NC(=O)[C@@H]1CCC(=O)N[C@@H](C)COc2cccc(c2)-c2cccc(c2)C(=O)N1C)c1ccccc1 [Ex. 76, (9S,14S)-9,15-dimethyl-11,16-dioxo-N-[(1S)-1-phenylethyl]-7-oxa-10,15-diazatricyclo[15.3.1.1^2,6]docosa-1(21),2(22),3,5,17,19-hexaene-14-carboxamide]
